In patent EP3277384B1, “SOLID ORAL CARE COMPOSITIONS” (Unilever IP Holdings B.V., priority 2015, dated 2016):

Assay: Approximate solubility of zinc salts
Settings: at 25C

## Zinc oxide
  Approximate Solubility: 5 µg/mL
